Data taken from patent US20130245064A1, “NOVEL NEUROTRYPSIN INHIBITORS” (priority 2010, published 2013).

Key:
human neurotrypsin = molecular target: T1, human neurotrypsin (Homo sapiens, UniProt P56730); assay: Determination of IC50 for human neurotrypsin; assay type: biochemical; settings: table of all 14 examples; read-out: Neurotrypsin IC50
T1 sequence (P56730 21-875): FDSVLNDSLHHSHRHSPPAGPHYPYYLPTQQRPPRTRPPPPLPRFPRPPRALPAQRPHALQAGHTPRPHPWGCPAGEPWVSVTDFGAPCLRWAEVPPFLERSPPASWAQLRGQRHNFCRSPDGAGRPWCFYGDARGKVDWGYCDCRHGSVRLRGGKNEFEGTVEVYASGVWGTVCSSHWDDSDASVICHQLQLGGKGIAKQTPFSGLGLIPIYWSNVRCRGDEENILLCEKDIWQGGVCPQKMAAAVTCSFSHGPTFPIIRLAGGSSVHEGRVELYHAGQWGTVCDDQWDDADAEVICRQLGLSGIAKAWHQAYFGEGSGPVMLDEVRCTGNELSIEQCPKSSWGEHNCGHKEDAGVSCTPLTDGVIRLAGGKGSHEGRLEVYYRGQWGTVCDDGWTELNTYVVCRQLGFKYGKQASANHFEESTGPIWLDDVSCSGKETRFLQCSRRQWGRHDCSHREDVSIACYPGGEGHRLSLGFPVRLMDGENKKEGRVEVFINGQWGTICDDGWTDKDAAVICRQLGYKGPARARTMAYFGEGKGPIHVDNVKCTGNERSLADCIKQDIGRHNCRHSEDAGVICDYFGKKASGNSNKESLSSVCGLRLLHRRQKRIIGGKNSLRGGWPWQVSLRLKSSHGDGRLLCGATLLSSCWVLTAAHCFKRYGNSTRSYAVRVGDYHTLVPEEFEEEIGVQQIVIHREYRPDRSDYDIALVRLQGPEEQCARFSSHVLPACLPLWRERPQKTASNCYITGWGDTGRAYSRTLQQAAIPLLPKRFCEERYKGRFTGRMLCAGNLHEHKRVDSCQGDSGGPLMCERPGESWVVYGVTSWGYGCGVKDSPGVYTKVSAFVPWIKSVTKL
Method: Determination of IC50 for Human Neurotrypsin
Assessment of the potency of compounds of examples 1-14 in inhibiting the enzymatic activity of human neurotrypsin was performed according to the method described in patent application […]

IC50 (human neurotrypsin) | melting point | Compound
10.8 µM | > 220 °C | O=C(Nc1ccc(Cl)cc1)c1ccc(NC(=O)c2[nH]c3ccc(Cl)cc3c2-c2ccccc2)cc1O [Example 8, N-(4-Chlorophenyl)-4-(5-chloro-3-phenylindole-2-carbonyl)amino-2-hydroxybenzamide]
1.1 µM | > 220 °C | O=C(Nc1ccc(C(=O)Nc2ccc(F)cc2F)c(O)c1)c1ccc(-c2nc3cc(Cl)c(Cl)cc3[nH]2)cc1 [Example 11, N-(2,4-Difluorophenyl)-4-(4-(5,6-dichloro-1H-benzo[d]imidazol-2-yl)-benzamido)-2-hydroxybenzamide]
13.9 µM | > 220 °C | O=C(Nc1ccc(C(=O)Nc2ccc(Cl)cc2)c(O)c1)c1ccc(Oc2ccc(Cl)c(Cl)c2)cc1 [Example 5]
18.3 µM | – | 1-(2-Hydroxy-4-(5,6-dichloro-1H-benzo[d]imidazol-2-yl)-benzoyl)-4-benzylpiperidine [Example 10]
7.6 µM | > 220 °C | O=C(Nc1ccc(C(=O)Nc2ccc(Cl)cc2)c(O)c1)c1ccc(-c2ccc(F)cc2)cc1 [Example 3]
3.4 µM | > 220 °C | O=C(Nc1ccc(C(=O)Nc2ccc(Cl)cc2)c(O)c1)c1ccc(-c2ccc(F)cc2)s1 [Example 6]
32.8 µM | > 220 °C | O=C(Nc1ccccc1F)c1ccc(NC(=O)c2[nH]c3ccc(Cl)cc3c2-c2ccccc2)cc1O [Example 2, N-(2-Fluorophenyl)-4-(5-chloro-3-phenyl-indole-2-carbonyl)amino-2-hydroxybenzamide]
1.7 µM | > 220 °C | CCCCc1ccc(NC(=O)c2ccc(NC(=O)c3ccc(-c4nc5cc(Cl)c(Cl)cc5[nH]4)cc3)cc2O)cc1 [Example 14, N-(4-Butylphenyl)-4-(4-(5,6-dichloro-1H-benzo[d]imidazol-2-yl)-benzamido)-2-hydroxybenzamide]
55.1 µM | – | CC(C)CN(CC(C)C)C(=O)c1ccc(NC(=O)c2ccc(-c3nc4cc(Cl)c(Cl)cc4[nH]3)cc2)cc1O [Example 13, N,N-Diisobutyl-2-hydroxy-4-((5,6-dichloro-1H-benzo[d]imidazol-2-yl)-benzamido)benzamide]
55.5 µM | > 220 °C | O=C(Nc1ccc(Cl)cc1)c1ccc(NC(=O)c2sc3ccccc3c2Cl)cc1O [Example 4, N-(4-Chlorophenyl)-4-[(3-chlorobenzo[b]-thiophene-2-carbonyl)amino]-2-hydroxybenzamide]
26.7 µM | > 220 °C | O=C(Nc1ccc(C(=O)Nc2ccc(Cl)cc2)c(O)c1)c1ccc2cc(Cl)c(Cl)cc2n1 [Example 7, N-(4-Chlorophenyl)-4-(6,7-dichloroquinoline-2-carbonyl)amino-2-hydroxybenzamide]
1.5 µM | – | 1-(2-Hydroxy-4-(5,6-dichloro-1H-benzo[d]imidazol-2-yl)-benzoyl)-4-phenoxypiperidine [Example 12]
1.9 µM | > 220 °C | O=C(Nc1ccc(C(=O)Nc2ccc(Cl)cc2F)c(O)c1)c1ccc(-c2nc3cc(Cl)c(Cl)cc3[nH]2)cc1 [Example 9, N-(2-Fluoro-4-chloro-phenyl)-4-(4-(5,6-di-chloro-1H-benzo[d]imidazol-2-yl)-benzamido)-2-hydroxybenzamide]
